The values below come from patent US10052330B2, “Substituted pyrido[3,4-b]pyrazines as Syk inhibitors” (HUTCHISON MEDIPHARMA LIMITED, priority 2011, dated 2018).

pIC50: −log10 of the molar value.

The target in one experiment is Syk kinase (Homo sapiens, UniProt P43405). In words: Syk kinase enzymatic assay (Kit-Tyr 2 Peptide). The format is biochemical. As to conditions: 8 concentrations, 1 μM down to 0.0003 μM; upper bound of each range is 'less than'; read-out: IC50: Enzymatic Activity (Syk kinase).
Another experiment concerns RBL-2H3 cells. Kind of experiment: IgE-induced Beta-hexosaminidase secretion in RBL-2H3 cells. In kind it is cell-based. The settings on record: Rattus norvegicus, RBL-2H3, RBL-2H3 cells sensitized with SPE-7, stimulated with DNP-BSA; upper bound of each range is 'less than'; read-out: IC50, IgE-induced Beta-hexosaminidase secretion.

Turning to `CS(=O)(=O)c1ccc(-c2cc3nccnc3c(NCC3CNCCC3(F)F)n2)cc1` (centres unmarked) [Compound 310], the pIC50 at Syk kinase and in the experiment on RBL-2H3 cells was 7.00 to 9.00 in each case.
For the molecule `CCS(=O)(=O)N1CCN(c2ccc(-c3cc4nccnc4c(NCC4CNCCC4(F)F)n3)cn2)CC1` (centres unmarked) [Compound 443], the pIC50 at Syk kinase and in the experiment with RBL-2H3 cells was 7.00 to 9.00 each time.
In the case of `COc1ccc(-c2cc3nccnc3c(NC[C@H]3CNCCO3)n2)cc1F` [Compound 95], the pIC50 on Syk kinase and with RBL-2H3 cells was 6.00 to 7.00 throughout.
Regarding `CS(=O)(=O)CC(=O)N1CCN(c2ccc(-c3cc4nccnc4c(NC[C@@H]4CNCCO4)n3)cc2)CC1` [Compound 280], the figures for the negative logarithm of the IC50 (pIC50) on Syk kinase and in the experiment on RBL-2H3 cells were 7.00 to 9.00 and 6.00 to 7.00, respectively.
The corresponding values for `Fc1cc(-c2cc3nccnc3c(NCC3CNCCC3(F)F)n2)ccc1N1CCOCC1` (centres unmarked) [Compound 294] are 7.00 to 9.00 and 7.00 to 9.00.
The corresponding values for `c1cnc2c(NCC3CCCNC3)nc(-c3cn[nH]c3)cc2n1` (centres unmarked) [Compound 25] are 6.00 to 7.00 and 6.00 to 7.00.
The corresponding values for `CC(O)[C@H]1CCN(c2nc(-c3ccc(N4CCOCC4)cc3)cc3nccnc23)C1` (stereo partly drawn) [Compound 174, (S)-1-(1-(7-(4-morpholinophenyl)pyrido[4,3-b]pyrazin-5-yl)pyrrolidin-3-yl)ethanol] are 6.00 to 7.00 and 6.00 to 7.00.
For the molecule `CS(=O)(=O)N1CCO[C@H](CNc2nc(-c3ccc(N4CCOCC4)cc3)cc3nccnc23)C1` [Compound 332], the pIC50 on Syk kinase and with RBL-2H3 cells was 7.00 to 9.00 in each case.
With `Cc1ccc(-c2cc3nccnc3c(NCC3CCCNC3)n2)cc1` (centres unmarked) [Compound 22], the pIC50 at Syk kinase and in the experiment on RBL-2H3 cells was 7.00 to 9.00 throughout.
`c1cnc2c(NC[C@@H]3CCCNC3)nc(-c3ccc(N4CCOCC4)nc3)cc2n1` [Compound 89]: the pIC50 at Syk kinase and in the experiment with RBL-2H3 cells was 6.00 to 7.00 throughout.
Consider `CC(=O)N1CCN(c2ccc(-c3cc4nccnc4c(NCC4CNCCC4(F)F)n3)cc2)CC1` (centres unmarked) [Compound 305], for which the pIC50 at Syk kinase and with RBL-2H3 cells was 7.00 to 9.00 throughout.
On to `CN(C)c1ccc(-c2cc3nccnc3c(N3CC[C@H](CO)C3)n2)cc1` [Compound 164], for which the pIC50 at Syk kinase and in the experiment on RBL-2H3 cells was 6.00 to 7.00 each time.
Consider `CNS(=O)(=O)N1CCC(c2ccc(-c3cc4nccnc4c(NC[C@@H]4CNCCO4)n3)cc2)CC1` [Compound 498], for which the pIC50 on Syk kinase and with RBL-2H3 cells was 7.00 to 9.00 in each case.
`CS(=O)(=O)N1CCC(c2ccc(-c3cc4nccnc4c(NCC4CNC(=O)CO4)n3)cc2)CC1` (centres unmarked) [Compound 501]: the pIC50 on Syk kinase and with RBL-2H3 cells was 7.00 to 9.00 each time.
Regarding `FC1(F)CCNCC1CNc1nc(-c2ccc(N3CCNCC3)cc2)cc2nccnc12` (centres unmarked) [Compound 307], the negative-log IC50 (pIC50) on Syk kinase and with RBL-2H3 cells was 7.00 to 9.00 each time.
Turning to `O=C(C(F)F)N1CCO[C@H](CNc2nc(-c3ccc(C4CCNCC4)cc3)cc3nccnc23)C1` [Compound 458], the results for the negative-log IC50 (pIC50) on Syk kinase and with RBL-2H3 cells were 7.00 to 9.00 and 6.00 to 7.00, respectively.
The matching figures for `CNC(=O)COc1ccc(-c2cc3nccnc3c(NC[C@H]3CNCCC3(F)F)n2)cc1` [Compound 389, (R)-2-(4-(5-((4,4-difluoropiperidin-3-yl)methylamino)pyrido[4,3-b]pyrazin-7-yl)phenoxy)-N-methylacetamide]: 7.00 to 9.00 and 7.00 to 9.00.
Turning to `CCN1CCC(c2ccc(-c3cc4nccnc4c(NC[C@@H]4CN(C(=O)C(F)F)CCO4)n3)cc2)CC1` [Compound 464], the pIC50 at Syk kinase was 7.00 to 9.00; with RBL-2H3 cells, 6.00 to 7.00.
For the molecule `c1cnc2c(NC[C@@H]3CNCCO3)nc(-c3ccc(N4CCCOCC4)cc3)cc2n1` [Compound 218], the pIC50 on Syk kinase and in the experiment on RBL-2H3 cells was 7.00 to 9.00 throughout.
`CNc1ccc(-c2cc3nccnc3c(NC[C@@H]3CNCCO3)n2)cc1C#N` [Compound 473]: the negative logarithm of the IC50 (pIC50) on Syk kinase and in the experiment with RBL-2H3 cells was 7.00 to 9.00 each time.
With `NC(=O)N[C@@H]1CCN(c2nc(-c3ccc(N4CCOCC4)cc3)cc3nccnc23)C1` [Compound 144], the pIC50 at Syk kinase and in the experiment on RBL-2H3 cells was 6.00 to 7.00 throughout.
As for `Cc1cc(-c2cc3nccnc3c(NC[C@@H]3CCCNC3)n2)ccc1N1CCOCC1` [Compound 120], the values for the pIC50 on Syk kinase and with RBL-2H3 cells were 7.00 to 9.00 and 6.00 to 7.00, respectively.
Regarding `CS(=O)(=O)N1CCC(Nc2ccc(-c3cc4nccnc4c(NC[C@@H]4CNCCO4)n3)cc2)CC1` [Compound 500], the negative logarithm of the IC50 (pIC50) at Syk kinase was 7.00 to 9.00; in the experiment with RBL-2H3 cells, 6.00 to 7.00.
For `Clc1cc(-c2cc3nccnc3c(NCC3CNCCCO3)n2)ccc1N1CCOCC1` (centres unmarked) [Compound 223], the pIC50 on Syk kinase and in the experiment on RBL-2H3 cells was 6.00 to 7.00 throughout.
Turning to `CCn1cc(-c2cc3nccnc3c(NC[C@@H]3CNCCC3(F)F)n2)cn1` [Compound 392, (S)—N-((4,4-difluoropiperidin-3-yl)methyl)-7-(1-ethyl-1H-pyrazol-4-yl)pyrido[4,3-b]pyrazin-5-amine], the pIC50 on Syk kinase and with RBL-2H3 cells was 7.00 to 9.00 each time.
For `CN1CCN(c2ccc(-c3cc4nccnc4c(NC[C@@H]4CCCNC4)n3)cc2)CC1` [Compound 122], the pIC50 at Syk kinase is 7.00 to 9.00; in the experiment with RBL-2H3 cells, 6.00 to 7.00.
The corresponding values for `COc1ccc(-c2cc3nccnc3c(NCC3CCCNC3)n2)cc1OC` (centres unmarked) [Compound 26] are 7.00 to 9.00 and 6.00 to 7.00.
As to `COc1ccc(-c2cc3nccnc3c(NCC3(F)CCCNC3)n2)cc1F` (centres unmarked) [Compound 255], the pIC50 on Syk kinase is 6.00 to 7.00; in the experiment with RBL-2H3 cells, 7.00 to 9.00.
On to `CN(C)c1ccc(-c2cc3nccnc3c(NC[C@@H]3CN(C(=O)C(F)F)CCO3)n2)cc1F` [Compound 456], for which the pIC50 on Syk kinase and with RBL-2H3 cells was 7.00 to 9.00 throughout.
Consider `CCC(=O)N1CCC(c2ccc(-c3cc4nccnc4c(NC[C@@H]4CNCCO4)n3)cc2)CC1` [Compound 504], for which the pIC50 on Syk kinase and in the experiment with RBL-2H3 cells was 7.00 to 9.00 throughout.
Regarding `CC(C)(C)c1ccc(-c2cc3nccnc3c(NC[C@H]3CCCNC3)n2)cc1` [Compound 79], the pIC50 at Syk kinase was 7.00 to 9.00; in the experiment on RBL-2H3 cells, 6.00 to 7.00.
The matching figures for `O=C(CO)N1CCN(c2ccc(-c3cc4nccnc4c(NC[C@@H]4CNCCO4)n3)cc2)CC1` [Compound 272]: 7.00 to 9.00 and 7.00 to 9.00.
Turning to `CN1CCN(c2ccc(-c3cc4nccnc4c(NC[C@H]4CCCNC4)n3)cc2F)CC1` [Compound 237], the negative logarithm of the IC50 (pIC50) on Syk kinase and in the experiment on RBL-2H3 cells was 7.00 to 9.00 in each case.
In the case of `CN1CCN(c2ccc(-c3cc4nccnc4c(N4CCC(C(N)=O)C4)n3)cc2)CC1` (centres unmarked) [Compound 128], the pIC50 was 7.00 to 9.00 at Syk kinase and 6.00 to 7.00 with RBL-2H3 cells.
The matching figures for `CS(=O)(=O)N1CCN(Cc2ccc(-c3cc4nccnc4c(NC[C@@H]4CNCCO4)n3)cc2)CC1` [Compound 503]: 7.00 to 9.00 and 6.00 to 7.00.
`O=C(C1CC1)N1CCN(c2ccc(-c3cc4nccnc4c(NC[C@@H]4CNCCO4)n3)cc2)CC1` [Compound 266]: the pIC50 on Syk kinase and in the experiment on RBL-2H3 cells was 7.00 to 9.00 each time.
For the molecule `FC(F)(F)c1ccc(-c2cc3nccnc3c(NCC3CCCNC3)n2)cc1` (centres unmarked) [Compound 63], the pIC50 was 7.00 to 9.00 at Syk kinase and 6.00 to 7.00 in the experiment on RBL-2H3 cells.
For the molecule `C[C@@H]1CN(c2ccc(-c3cc4nccnc4c(NC[C@@H]4CNCCO4)n3)cc2F)CCO1` [Compound 387, 7-(3-fluoro-4-((R)-2-methylmorpholino)phenyl)-N—((S)-morpholin-2-ylmethyl)pyrido[4,3-b]pyrazin-5-amine], the pIC50 on Syk kinase and with RBL-2H3 cells was 7.00 to 9.00 in each case.
As to `O=C(c1ccoc1)N1CCN(c2ccc(-c3cc4nccnc4c(NCC4CNCCO4)n3)cc2)CC1` (centres unmarked) [Compound 421], the pIC50 at Syk kinase and in the experiment on RBL-2H3 cells was 7.00 to 9.00 throughout.
Regarding `O=C(C(F)F)N1CCO[C@H](CNc2nc(-c3ccc(N4CCOCC4)c(F)c3)cc3nccnc23)C1` [Compound 451], the pIC50 at Syk kinase and in the experiment with RBL-2H3 cells was 7.00 to 9.00 in each case.
Take `FC1(CNc2nc(-c3cnn(C4CCCC4)c3)cc3nccnc23)CCCNC1` (centres unmarked) [Compound 289]: the pIC50 at Syk kinase and with RBL-2H3 cells was 7.00 to 9.00 throughout.
With `O=C(c1ccco1)N1CCN(c2ccc(-c3cc4nccnc4c(NCC4CNCCO4)n3)cc2)CC1` (centres unmarked) [Compound 425], the pIC50 on Syk kinase and in the experiment with RBL-2H3 cells was 7.00 to 9.00 each time.
For `CCNC[C@@H]1CCN(c2nc(-c3ccc(N4CCOCC4)cc3)cc3nccnc23)C1` [Compound 148], the negative logarithm of the IC50 (pIC50) at Syk kinase and in the experiment with RBL-2H3 cells was 6.00 to 7.00 throughout.
For `O=C([C@@H]1CCOC1)N1CCN(c2ccc(-c3cc4nccnc4c(NC[C@@H]4CNCCO4)n3)cc2)CC1` [Compound 417], the results for the pIC50 at Syk kinase and in the experiment on RBL-2H3 cells were 7.00 to 9.00 and 6.00 to 7.00, respectively.
The matching figures for `Cc1ccc(-c2cc3nccnc3c(NC[C@@H]3CCCNC3)n2)cc1Cl` [Compound 76]: 6.00 to 7.00 and 6.00 to 7.00.
As for `c1cnc2c(NC[C@@H]3CNCCO3)nc(-c3ccc(N4CCCOCC4)nc3)cc2n1` [Compound 269], the pIC50 on Syk kinase and with RBL-2H3 cells was 7.00 to 9.00 in each case.
As for `Cc1ccc(-c2cc3nccnc3c(NC[C@H]3CCCNC3)n2)cc1` [Compound 40], the pIC50 on Syk kinase is 7.00 to 9.00; in the experiment on RBL-2H3 cells it was 6.00 to 7.00.
For `C[C@@H](O)C(=O)N1CCN(c2ccc(-c3cc4nccnc4c(NC[C@@H]4CNCCO4)n3)cc2)CC1` [Compound 406], the negative-log IC50 (pIC50) at Syk kinase is 7.00 to 9.00; in the experiment with RBL-2H3 cells it was 6.00 to 7.00.
The corresponding values for `O=C([C@H]1CCCO1)N1CCN(c2ccc(-c3cc4nccnc4c(NC[C@@H]4CNCCO4)n3)cc2)CC1` [Compound 416] are 7.00 to 9.00 and 7.00 to 9.00.
Consider `FC(F)Oc1ccc(-c2cc3nccnc3c(NC[C@@H]3CNCCO3)n2)cc1` [Compound 138], for which the pIC50 at Syk kinase and in the experiment on RBL-2H3 cells was 6.00 to 7.00 in each case.
Take `COc1ccc(-c2cc3nccnc3c(NCC3CNCCC3(F)F)n2)cc1F` (centres unmarked) [Compound 296]: the pIC50 on Syk kinase and with RBL-2H3 cells was 7.00 to 9.00 throughout.
On to `O=C(C(F)F)N1CCO[C@H](CNc2nc(-c3ccc(N4CCN(CCCO)CC4)cc3)cc3nccnc23)C1` [Compound 490], for which the pIC50 at Syk kinase and in the experiment on RBL-2H3 cells was 7.00 to 9.00 throughout.
